± gives the expanded uncertainty stated by the source.

The conditions of this data set: 100 kPa, Liquid, Vibrating tube method.

As for `CCC(C)(C)O` [2-methylbutan-2-ol], the mass density (usually mass per unit of volume) reads like this: (273.65 K) 826.7 ± 2 kg/m3; (274.15 K) 826.3 ± 2 kg/m3; (274.65 K) 825.8 ± 2 kg/m3; (275.15 K) 825.4 ± 2 kg/m3; (275.65 K) 824.9 ± 2 kg/m3; (276.15 K) 824.5 ± 2 kg/m3. Also, the mass density runs as follows: (276.65 K) 824 ± 2 kg/m3; (277.15 K) 823.5 ± 2 kg/m3; (277.65 K) 823.1 ± 2 kg/m3; (278.15 K) 822.6 ± 2 kg/m3; (278.65 K) 822.2 ± 2 kg/m3; (279.15 K) 821.7 ± 2 kg/m3. In addition, the mass density was 821.3 ± 2 kg/m3 (279.65 K); 820.8 ± 2 kg/m3 (280.15 K); 820.3 ± 2 kg/m3 (280.65 K); 819.9 ± 2 kg/m3 (281.15 K); 819.4 ± 2 kg/m3 (281.65 K); 819 ± 2 kg/m3 (282.15 K).
Turning to `CCCC(C)O` (centres undefined) [pentan-2-ol], the mass density runs as follows: (273.65 K) 824 ± 2.1 kg/m3; (274.15 K) 823.6 ± 2.1 kg/m3; (274.65 K) 823.2 ± 2.1 kg/m3; (275.15 K) 822.8 ± 2.1 kg/m3; (275.65 K) 822.5 ± 2.1 kg/m3; (276.15 K) 822.1 ± 2.1 kg/m3. Also, the mass density (276.65 K) amounted to 821.7 ± 2.1 kg/m3; the mass density (277.15 K) is reported as 821.3 ± 2.1 kg/m3; the mass density (277.65 K) came to 820.9 ± 2.1 kg/m3; the mass density (278.15 K) was 820.6 ± 2.1 kg/m3; the mass density (278.65 K) amounted to 820.2 ± 2.1 kg/m3; the mass density (279.15 K) was determined as 819.8 ± 2.1 kg/m3. The mass density is, setting by setting: (279.65 K) 819.4 ± 2.1 kg/m3; (280.15 K) 819.1 ± 2.1 kg/m3; (280.65 K) 818.7 ± 2.1 kg/m3; (281.15 K) 818.3 ± 2.1 kg/m3; (281.65 K) 817.9 ± 2.1 kg/m3; (282.15 K) 817.5 ± 2.1 kg/m3.
For `CCC(O)CC` [3-pentanol], the mass density is, setting by setting: (273.65 K) 835.7 ± 2.1 kg/m3; (274.15 K) 835.3 ± 2.1 kg/m3; (274.65 K) 834.9 ± 2.1 kg/m3; (275.15 K) 834.5 ± 2.1 kg/m3; (275.65 K) 834.1 ± 2.1 kg/m3; (276.15 K) 833.7 ± 2.1 kg/m3. For the same molecule, the mass density is given as 833.3 ± 2.1 kg/m3 (276.65 K); 832.9 ± 2.1 kg/m3 (277.15 K); 832.5 ± 2.1 kg/m3 (277.65 K); 832.1 ± 2.1 kg/m3 (278.15 K); 831.7 ± 2.1 kg/m3 (278.65 K); 831.3 ± 2.1 kg/m3 (279.15 K). Besides, the mass density by setting is: (279.65 K) 830.9 ± 2.1 kg/m3; (280.15 K) 830.5 ± 2.1 kg/m3; (280.65 K) 830.1 ± 2.1 kg/m3; (281.15 K) 829.7 ± 2.1 kg/m3; (281.65 K) 829.3 ± 2.1 kg/m3; (282.15 K) 828.9 ± 2.1 kg/m3.

(Values after the NIST ThermoML archive (doi:10.1016/j.jct.2017.07.011).)
